{
  "source": "patent US20100119576A1",
  "about": "“USE OF ONE OR MORE OF THE ELEMENTS FROM THE GROUP YTTRIUM, NEODYMIUM AND ZIRCONIUM, AND PHARMACEUTICAL COMPOSITIONS WHICH CONTAIN THOSE ELEMENTS” (BIOTRONIK VI PATENT AG, priority 2002, published 2010)",
  "origin": "cited, not measured here",
  "tested_on": "Klebsiella pneumoniae strain 204 and K9",
  "conditions": "142 mM Y(OH)3",
  "data": [
    {"smiles": "[OH-].[OH-].[OH-].[Y+3]", "note": "[Y(OH)3]", "values": [
      {"measurement": "proliferation of K. pneumoniae", "result": "increased proliferation"}
    ]}
  ]
}
